The values that follow come from patent US9663473B2 (Actelion Pharmaceuticals Ltd, priority 2013, dated 2017).

The target of the assay is T1, recombinant human ALX receptor (Homo sapiens, UniProt P25090).
T1 construct: expressed in transfected cells; host or cells: HEK293 (HEK293-hALXR-Gα16)
T1 sequence (P25090 1-351): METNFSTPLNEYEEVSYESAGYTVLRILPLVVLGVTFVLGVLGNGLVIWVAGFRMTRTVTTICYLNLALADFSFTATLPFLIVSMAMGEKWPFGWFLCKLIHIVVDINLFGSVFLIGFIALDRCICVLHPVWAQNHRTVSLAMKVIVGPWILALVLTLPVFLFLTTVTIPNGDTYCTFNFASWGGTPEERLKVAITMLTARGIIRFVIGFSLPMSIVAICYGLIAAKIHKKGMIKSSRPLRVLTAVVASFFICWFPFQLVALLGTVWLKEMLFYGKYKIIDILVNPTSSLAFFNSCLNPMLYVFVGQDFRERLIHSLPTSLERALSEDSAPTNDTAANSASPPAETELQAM
The assay is described as follows: Intracellular calcium measurements (FLIPR), ALX receptor agonistic activity. The assay is classed as cell-based. The note with it: HEK293-hALXR-Gα16 cells, Fluo-4 calcium signal, normalized to WKYMVm 10 nM. Here is the method: The ALX receptor agonistic activity of the compounds of formula (I) is determined in accordance with the following experimental method.
Intracellular Calcium Measurements:
Cells expressing recombinant human ALX receptor and the G-protein Gα16 (HEK293-hALXR-Gα16) were grown to 80% confluency in Growing Medium (GM). Cells were detached from culture dishes with a cell dissociation buffer (Invitrogen, 13151-014), and collected by centrifugation at 1′000 rpm at rt for 5 min in Assay Buffer (AB) (equal parts of Hank's BSS (Gibco, 14065-049) and DMEM without Phenol Red (Gibco, 11880-028)). After 60 min incubation at 37° C. under 5% CO2 in AB supplemented with 1 μM Fluo-4 (AM) (Invitrogen, F14202) and 20 mM HEPES (Gibco, 15630-056), the cells were washed and resuspended in AB. They were then seeded onto 384-well FLIPR assay plates (Greiner, 781091) at 50′000 cells in 70 μl per well and sedimented by centrifugation at 1′000 rpm for 1 min. Stock solutions of test compounds were made up at a concentration of 10 mM in DMSO, and serially diluted in AB to concentrations required for activation dose response curves. WKYMVm (Phoenix Peptides) was used as a reference agonist. A FLIPR Tetra instrument (Molecular Devices) was operated according to the manufacturer's standard instructions, adding 4 μl of test compound dissolved at 10 mM in DMSO and diluted prior to the experiment in assay buffer to obtain the desired final concentration. Changes in fluorescence were monitored before and after the addition of test compounds at lex=488 nm and lem=540 nm. Emission peak values above base level after compounds addition were exported after base line subtraction. Values were normalized to high-level control (WKYMVm compound, 10 nM final concentration) after subtraction of the base line value (AB addition).
(In general: Calcium assays in cells follow changes in intracellular calcium, usually with a dye or a luminescent sensor.)

Each structure is given as a SMILES string. Where a name gives a salt, the structure may show the parent alone.

On to `COc1ccc(C[C@@H](NC(=O)NC2CCc3ccccc3C2)c2nc3ccccc3[nH]2)cc1` (stereo partly drawn) [Example 15, 1-((R)-1-(1H-Benzo[d]imidazol-2-yl)-2-(4-methoxyphenyl)ethyl)-3-(1,2,3,4-tetrahydronaphthalen-2-yl)urea hydrochloride], for which the EC50 – broadly, the midpoint of the concentration-response curve – was determined as 59 nM.
Then `COc1ccc(C[C@@H](NC(=O)N[C@H](CO)Cc2ccccc2)c2nc3ccccc3[nH]2)cc1` [Example 212, 1-((R)-1-(1H-Benzo[d]imidazol-2-yl)-2-(4-methoxyphenyl)ethyl)-3-((S)-1-hydroxy-3-phenylpropan-2-yl)urea], with 2.8 nM; and `COc1ccc(CC(NC(=O)Nc2ccnn2C)c2nc3ccccc3[nH]2)cc1` (stereo not shown) [Example 418, 1-(1-(1H-benzo[d]imidazol-2-yl)-2-(4-methoxyphenyl)ethyl)-3-(1-methyl-1H-pyrazol-5-yl)urea], with 210 nM.
Then `CCc1ccc(CC(NC(=O)N[C@H]2CC[C@H](O)CC2)c2nc3cc(F)ccc3[nH]2)cc1` (single isomer, unassigned; ent-2) [Example 374, 1-(2-(4-Ethylphenyl)-1-(5-fluoro-1H-benzo[d]imidazol-2-yl)ethyl)-3-(trans-4-hydroxycyclohexyl)urea (ent-2)], with 597 nM.
Turning to `COc1ccc(C[C@@H](NC(=O)N[C@H]2CCNC2)c2nc3ccccc3[nH]2)cc1` [Example 126, 1-((R)-1-(1H-Benzo[d]imidazol-2-yl)-2-(4-methoxyphenyl)ethyl)-3-((S)-pyrrolidin-3-yl)urea], the EC50 was 601 nM.
As for `COc1ccc(C[C@@H](NC(=O)NCc2cccc(Cl)c2Cl)c2nc3ccccc3[nH]2)cc1` [Example 307, (R)-1-(1-(1H-Benzo[d]imidazol-2-yl)-2-(4-methoxyphenyl)ethyl)-3-(2,3-dichlorobenzyl)urea], the EC50 was 50 nM.
Take `COc1ccc(C[C@@H](NC(=O)NC[C@@H](O)c2ccccc2)c2nc3ccccc3[nH]2)cc1` [Example 281, 1-((R)-1-(1H-Benzo[d]imidazol-2-yl)-2-(4-methoxyphenyl)ethyl)-3-((S)-2-hydroxy-2-phenylethyl)urea]: the EC50 amounted to 105 nM.
Turning to `COc1cc(F)c(CC(NC(=O)N[C@H]2CC[C@H](O)CC2)c2nc3ccccc3[nH]2)cc1F` (relative stereo) [Example 247, 1-(1-(1H-Benzo[d]imidazol-2-yl)-2-(2,5-difluoro-4-methoxyphenyl)ethyl)-3-(trans-4-hydroxycyclohexyl)urea], the EC50 was 10 nM.
For `COc1ccc(CC(NC(=O)N[C@H]2CC[C@H](OC)CC2)c2nc3ccccc3[nH]2)cc1` (relative stereo) [Example 80, 1-(1-(1H-Benzo[d]imidazol-2-yl)-2-(4-methoxyphenyl)ethyl)-3-(trans-4-methoxycyclohexyl)urea], the EC50 stood at 172 nM.
Take `COc1ccc(CC(NC(=O)NCc2cccnc2OC)c2nc3ccccc3[nH]2)cc1` (stereo not shown) [Example 385, 1-(1-(1H-Benzo[d]imidazol-2-yl)-2-(4-methoxyphenyl)ethyl)-3-((2-methoxypyridin-3-yl)methyl)urea]: the half-maximal effective concentration (EC50) is 1030 nM.
As for `COc1ccc(CC(NC(=O)NC23CCC(O)(CC2)CC3)c2nc3ccccc3[nH]2)c(F)c1F` (single isomer, unassigned; ent-1) [Example 266, 1-(1-(1H-Benzo[d]imidazol-2-yl)-2-(2,3-difluoro-4-methoxyphenyl)ethyl)-3-(4-hydroxybicyclo[2.2.2]octan-1-yl)urea (ent-1)], the EC50 was determined as 3.3 nM.
Regarding `COc1ccc(C[C@@H](NC(=O)N[C@@H]2CCCNC2)c2nc3ccccc3[nH]2)cc1` [Example 131, 1-((R)-1-(1H-Benzo[d]imidazol-2-yl)-2-(4-methoxyphenyl)ethyl)-3-((R)-piperidin-3-yl)urea], the concentration giving a half-maximal response (EC50) worked out at 15 nM.
For `COc1ccc(C[C@@H](NC(=O)N[C@H](C)c2ccc(Cl)cc2)c2nc3ccccc3[nH]2)cc1` [Example 329, 1-((R)-1-(1H-Benzo[d]imidazol-2-yl)-2-(4-methoxyphenyl)ethyl)-3-((R)-1-(4-chlorophenyl)ethyl)urea], the EC50 came out at 285 nM.
